In article PMC6123363, “Functional Characterization of c-di-GMP Signaling-Related Genes in the Probiotic Lactobacillus acidophilus” (Frontiers in Microbiology, 2018):

Legend:
[1] = target: T1, MBP-EALpdeB (EAL domain of PdeB) (Lactobacillus acidophilus, UniProt Q5FJ84); assay: equilibrium dialysis with HPLC quantification; type: binding
T1 construct: gene LBA1415; EAL domain (residues 32-267, ELLLR motif, no N-terminal membrane targeting signal), MBP fusion in pMAL-c2, expressed in E. coli BL21, amylose column; MBP kept
T1 sequence (Q5FJ84 32-267): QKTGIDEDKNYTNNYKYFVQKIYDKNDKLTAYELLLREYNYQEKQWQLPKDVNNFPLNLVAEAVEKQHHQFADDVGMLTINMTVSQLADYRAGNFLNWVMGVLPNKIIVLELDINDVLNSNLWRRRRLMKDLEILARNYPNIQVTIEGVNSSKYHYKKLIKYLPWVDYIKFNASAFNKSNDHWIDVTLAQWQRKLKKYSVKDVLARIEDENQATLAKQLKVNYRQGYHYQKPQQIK

MBP-PdeA = target: T2, MBP-PdeA (Lactobacillus acidophilus, UniProt Q5FJ85); assay: PDE assay, reversed-phase HPLC; type: biochemical; settings: 10 μM enzyme, 100 μM c-di-GMP, 5 mM MgCl2, 50 mM Tris-HCl pH 9.35, 37 °C
T2 construct: gene LBA1414; pdeA (EAL domain only protein), MBP fusion in pMAL-c2, expressed in E. coli BL21, amylose column; MBP kept
T2 sequence (Q5FJ85 1-231): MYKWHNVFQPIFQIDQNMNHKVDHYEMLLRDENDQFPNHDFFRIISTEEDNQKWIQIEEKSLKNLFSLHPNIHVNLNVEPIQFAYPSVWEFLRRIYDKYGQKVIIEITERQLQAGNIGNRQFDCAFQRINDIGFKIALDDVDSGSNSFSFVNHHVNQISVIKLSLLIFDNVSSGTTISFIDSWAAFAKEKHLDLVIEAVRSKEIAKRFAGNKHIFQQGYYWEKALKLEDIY

Row | Structure (SMILES) | Kd [1] [µM] | PDE assay, reversed-phase HPLC (MBP-PdeA)
1 | Nc1nc2c(ncn2[C@@H]2O[C@@H]3COP(=O)(O)O[C@H]4[C@@H](O)[C@H](n5cnc6c(=O)[nH]c(N)nc65)O[C@@H]4COP(=O)(O)O[C@H]3[C@H]2O)c(=O)[nH]1 [c-di-GMP] | 4.87 ± 0.89 | PdeA was able to hydrolyze c-di-GMP to pGpG
2 | Nc1nc2c(ncn2[C@@H]2O[C@H](COP(=O)(O)O[C@H]3[C@@H](O)[C@H](n4cnc5c(=O)[nH]c(N)nc54)O[C@@H]3COP(=O)(O)O)[C@@H](O)[C@H]2O)c(=O)[nH]1 [pGpG] | – | The PdeA enzymatic reaction product corresponded to the retention time of the pGpG
